# Active and inactive are the calls of the source. No cut-off for these calls is given here.
# Columns and labels:
# HL-60 = test: Growth inhibition of human HL60 cells incubated for 2 days by CCK8 assay; format: functional, cell-based
# [1] = molecular target: T1, von Hippel-Lindau disease tumor suppressor/Tyrosine-protein kinase ABL1/Breakpoint cluster region protein (Homo sapiens, UniProt P00519+P11274+P40337); test: Protac activity against VHL/BCR-ABL in NOD/SCID mouse xenografted with luciferse expressing human K562 cells assessed as induction of BCR-ABL degradation at 5 to 15 mg/kg, ip QD for 4 days by Western blotting analysis; format: functional, organism-based
# T1 sequence (P00519 whole entry, looked up): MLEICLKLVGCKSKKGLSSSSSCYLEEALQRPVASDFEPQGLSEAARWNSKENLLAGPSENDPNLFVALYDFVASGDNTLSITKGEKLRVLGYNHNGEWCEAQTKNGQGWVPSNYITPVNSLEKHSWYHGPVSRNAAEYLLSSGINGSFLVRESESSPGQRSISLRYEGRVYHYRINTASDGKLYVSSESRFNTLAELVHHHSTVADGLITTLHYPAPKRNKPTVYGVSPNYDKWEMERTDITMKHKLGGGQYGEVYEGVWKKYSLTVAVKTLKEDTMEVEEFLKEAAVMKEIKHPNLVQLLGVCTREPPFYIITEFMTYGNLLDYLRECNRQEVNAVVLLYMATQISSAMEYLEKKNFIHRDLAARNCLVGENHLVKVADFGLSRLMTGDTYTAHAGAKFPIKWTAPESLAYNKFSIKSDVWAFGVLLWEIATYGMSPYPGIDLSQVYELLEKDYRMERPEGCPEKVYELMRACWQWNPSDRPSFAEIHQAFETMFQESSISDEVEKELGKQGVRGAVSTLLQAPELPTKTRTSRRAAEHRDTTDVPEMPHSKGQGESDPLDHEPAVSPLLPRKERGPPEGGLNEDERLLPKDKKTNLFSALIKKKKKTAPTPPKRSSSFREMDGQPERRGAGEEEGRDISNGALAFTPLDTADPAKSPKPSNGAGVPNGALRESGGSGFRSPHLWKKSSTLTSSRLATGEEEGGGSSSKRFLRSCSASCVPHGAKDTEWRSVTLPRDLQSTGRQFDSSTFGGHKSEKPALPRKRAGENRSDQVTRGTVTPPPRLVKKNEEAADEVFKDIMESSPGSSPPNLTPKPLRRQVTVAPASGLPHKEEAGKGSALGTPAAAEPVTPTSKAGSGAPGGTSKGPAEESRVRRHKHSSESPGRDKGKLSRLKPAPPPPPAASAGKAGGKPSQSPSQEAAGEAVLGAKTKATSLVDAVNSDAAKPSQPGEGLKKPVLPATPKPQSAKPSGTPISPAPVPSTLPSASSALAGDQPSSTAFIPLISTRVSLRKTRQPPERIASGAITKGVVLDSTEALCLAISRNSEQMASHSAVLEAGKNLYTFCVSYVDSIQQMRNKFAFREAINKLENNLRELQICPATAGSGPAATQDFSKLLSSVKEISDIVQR
# T1 sequence (P11274 whole entry, looked up): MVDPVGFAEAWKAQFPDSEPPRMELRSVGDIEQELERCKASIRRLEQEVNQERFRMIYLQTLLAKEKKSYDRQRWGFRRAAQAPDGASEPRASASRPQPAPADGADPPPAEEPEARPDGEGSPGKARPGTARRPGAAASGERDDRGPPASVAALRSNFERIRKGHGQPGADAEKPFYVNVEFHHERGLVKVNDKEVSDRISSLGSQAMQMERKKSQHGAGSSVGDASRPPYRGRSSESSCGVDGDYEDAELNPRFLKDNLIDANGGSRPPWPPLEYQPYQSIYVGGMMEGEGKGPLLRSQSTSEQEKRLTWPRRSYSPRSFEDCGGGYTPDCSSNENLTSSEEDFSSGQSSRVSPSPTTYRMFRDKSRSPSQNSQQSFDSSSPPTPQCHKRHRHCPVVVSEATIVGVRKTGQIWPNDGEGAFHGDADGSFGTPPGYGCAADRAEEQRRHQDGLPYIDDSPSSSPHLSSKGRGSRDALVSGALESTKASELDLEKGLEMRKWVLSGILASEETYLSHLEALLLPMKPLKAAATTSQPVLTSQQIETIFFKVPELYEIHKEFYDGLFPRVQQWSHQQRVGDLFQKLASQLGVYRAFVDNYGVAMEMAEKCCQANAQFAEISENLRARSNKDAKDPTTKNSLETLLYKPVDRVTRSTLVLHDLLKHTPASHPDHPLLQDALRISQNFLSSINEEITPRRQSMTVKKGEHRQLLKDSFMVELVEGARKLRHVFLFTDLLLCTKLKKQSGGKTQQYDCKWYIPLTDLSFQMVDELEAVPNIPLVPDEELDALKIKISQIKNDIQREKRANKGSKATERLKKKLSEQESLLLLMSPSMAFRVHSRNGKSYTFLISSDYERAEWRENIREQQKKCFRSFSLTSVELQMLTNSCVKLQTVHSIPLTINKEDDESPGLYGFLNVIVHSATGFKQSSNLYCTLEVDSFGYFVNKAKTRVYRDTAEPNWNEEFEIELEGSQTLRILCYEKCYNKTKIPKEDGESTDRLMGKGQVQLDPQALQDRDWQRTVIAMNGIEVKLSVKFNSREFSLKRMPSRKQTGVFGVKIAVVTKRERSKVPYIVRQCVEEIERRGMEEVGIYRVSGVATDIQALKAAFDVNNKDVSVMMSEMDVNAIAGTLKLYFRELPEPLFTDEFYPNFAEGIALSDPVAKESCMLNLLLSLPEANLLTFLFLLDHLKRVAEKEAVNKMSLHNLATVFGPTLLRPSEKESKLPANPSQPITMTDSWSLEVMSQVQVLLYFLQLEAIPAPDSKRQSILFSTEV
# T1 sequence (P40337 whole entry, looked up): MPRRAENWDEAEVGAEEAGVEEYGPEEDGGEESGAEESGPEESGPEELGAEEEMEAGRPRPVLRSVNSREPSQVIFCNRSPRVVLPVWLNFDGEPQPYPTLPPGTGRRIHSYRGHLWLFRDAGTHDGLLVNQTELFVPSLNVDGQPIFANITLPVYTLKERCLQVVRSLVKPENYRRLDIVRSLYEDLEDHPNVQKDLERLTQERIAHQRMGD
# K562 [2] = test: Effect on YES protein level in human K562 cells at 100 nM incubated for 16 hrs by multiplexed tandem mass spectrometry; format: ADME, cell-based; conditions: k562, 16 h, 0.1 µM
# [3] = molecular target: T1, von Hippel-Lindau disease tumor suppressor/Tyrosine-protein kinase ABL1/Breakpoint cluster region protein; test: Protac activity against VHL/BCR-ABL in human K562 cells assessed as reduction in BCR-ABL protein levels at 1 to 100 nM incubated for 16 hrs by Western blot analysis; format: cell-based
# [4] = test system: von Hippel-Lindau disease tumor suppressor/Tyrosine-protein kinase ABL1/Breakpoint cluster region protein (Homo sapiens), P00519+P11274+P40337 [G250E]; test: Protac activity against VHL/BCR-ABL G250E mutant (unknown origin) expressed in human U937 cells assessed as induction of BCR-ABL degradation incubated for 16 hrs by Western blot analysis; format: cell-based
# K562 [5] = test: Growth inhibition of human K562 cells assessed as reduction in cell density at 20 times IC50 incubated for 12 hrs followed by drug wash-out and incubation in drug-free medium up to 144 hrs by CCK8 assay; format: functional, cell-based
# K562 [6] = test: Growth inhibition of human K562 cells incubated for 2 days by CCK8 assay; format: functional, cell-based; conditions: K562, 48 h
# [7] = molecular target: T1, von Hippel-Lindau disease tumor suppressor/Tyrosine-protein kinase ABL1/Breakpoint cluster region protein; test: Induction of ternary complex formation between VHL and BCR-ABL (unknown origin) expressed in HEK293 cells expressing N-terminal BCR-ABL LgBit fusion protein and N-terminal SmBit-VHL fusion protein incubated for 1 hr by NanoBit technology based luciferase complementation assay; format: cell-based
# Mus musculus = test: Inhibition of BCR-ABL phosphorylation in NOD/SCID mouse xenografted with luciferse expressing human K562 cells at 5 to 15 mg/kg, ip QD for 4 days by Western blotting analysis; format: functional, organism-based
# SUP-B15 = test: Growth inhibition of human SUP-B15 cells incubated for 2 days by CCK8 assay; format: functional, cell-based
# KU812 cell line = test: Growth inhibition of human KU812 cells incubated for 2 days by CCK8 assay; format: functional, cell-based
# K562 [8] = test: Induction of cell death in human K562 cells assessed as reduction in cell viability at 20 times IC50 incubated for 12 hrs followed by drug wash-out and incubation in drug-free medium up to 144 hrs by CCK8 assay; format: functional, cell-based
# [9] = molecular target: T1, von Hippel-Lindau disease tumor suppressor/Tyrosine-protein kinase ABL1/Breakpoint cluster region protein; test: Protac activity against VHL/BCR-ABL (unknown origin) expressed in human U937 cells assessed as induction of BCR-ABL degradation incubated for 16 hrs by Western blot analysis; format: cell-based
# [10] = molecular target: von Hippel-Lindau disease tumor suppressor/Tyrosine-protein kinase Lck (Homo sapiens) (UniProt P06239+P40337); test: Protac activity against VHL/LCK in human K562 cells assessed as reduction in Lck protein levels at 1 to 100 nM incubated for 16 hrs by Western blot analysis; format: cell-based
# [11] = molecular target: von Hippel-Lindau disease tumor suppressor/Tyrosine-protein kinase ABL2 (Homo sapiens) (UniProt P42684); test: Protac activity against VHL/BCR-ABL in human K562 cells assessed as reduction in ABL2 protein levels at 100 nM incubated for 16 hrs by multiplexed tandem mass spectrometry
# Chain of von Hippel-Lindau disease tumor suppressor/Tyrosine-protein kinase ABL2 (Homo sapiens) (P42684 whole entry, looked up): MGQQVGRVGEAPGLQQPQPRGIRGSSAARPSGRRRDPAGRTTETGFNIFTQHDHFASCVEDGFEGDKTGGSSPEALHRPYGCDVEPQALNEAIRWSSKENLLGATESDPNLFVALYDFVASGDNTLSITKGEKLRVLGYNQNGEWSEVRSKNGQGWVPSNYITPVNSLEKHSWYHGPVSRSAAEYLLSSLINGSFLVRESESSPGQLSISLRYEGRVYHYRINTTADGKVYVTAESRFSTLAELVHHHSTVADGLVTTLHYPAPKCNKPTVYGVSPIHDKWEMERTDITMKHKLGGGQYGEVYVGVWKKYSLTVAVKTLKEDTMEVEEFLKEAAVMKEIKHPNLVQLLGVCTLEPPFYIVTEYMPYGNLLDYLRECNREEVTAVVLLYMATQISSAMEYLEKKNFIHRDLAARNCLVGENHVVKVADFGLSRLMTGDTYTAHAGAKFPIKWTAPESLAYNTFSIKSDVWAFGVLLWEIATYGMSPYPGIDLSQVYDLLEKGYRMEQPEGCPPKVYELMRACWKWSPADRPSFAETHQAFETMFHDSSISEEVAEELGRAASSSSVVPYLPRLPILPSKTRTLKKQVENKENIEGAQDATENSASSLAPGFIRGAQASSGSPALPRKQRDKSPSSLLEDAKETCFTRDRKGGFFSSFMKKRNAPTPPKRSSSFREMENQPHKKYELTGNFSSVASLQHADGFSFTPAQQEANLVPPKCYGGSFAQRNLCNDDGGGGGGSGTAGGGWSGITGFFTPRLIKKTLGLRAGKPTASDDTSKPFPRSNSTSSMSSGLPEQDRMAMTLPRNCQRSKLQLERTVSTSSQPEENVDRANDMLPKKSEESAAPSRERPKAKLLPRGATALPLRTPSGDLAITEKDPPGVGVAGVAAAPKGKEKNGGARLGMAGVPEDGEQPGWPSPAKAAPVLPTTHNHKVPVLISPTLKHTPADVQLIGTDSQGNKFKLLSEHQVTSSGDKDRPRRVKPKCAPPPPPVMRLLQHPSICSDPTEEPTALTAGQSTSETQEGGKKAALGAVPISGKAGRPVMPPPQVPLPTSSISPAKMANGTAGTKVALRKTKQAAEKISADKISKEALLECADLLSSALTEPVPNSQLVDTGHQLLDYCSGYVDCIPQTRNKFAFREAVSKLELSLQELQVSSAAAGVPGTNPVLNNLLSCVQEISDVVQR
# [12] = test system: von Hippel-Lindau disease tumor suppressor/Tyrosine-protein kinase ABL1/Breakpoint cluster region protein (Homo sapiens), P00519+P11274+P40337 [V299L]; test: Protac activity against VHL/BCR-ABL V299L mutant (unknown origin) expressed in human U937 cells assessed as induction of BCR-ABL degradation incubated for 16 hrs by Western blot analysis; format: cell-based
# [13] = molecular target: von Hippel-Lindau disease tumor suppressor/Ephrin type-B receptor 4 (Homo sapiens) (UniProt P54760+P40337); test: Protac activity against VHL/EPHB4 in human K562 cells assessed as reduction in EPHB4 protein levels at 1 to 100 nM incubated for 16 hrs by Western blot analysis; format: cell-based
# [14] = molecular target: T1, von Hippel-Lindau disease tumor suppressor/Tyrosine-protein kinase ABL1/Breakpoint cluster region protein; test: Protac activity against VHL/BCR-ABL in human K562 cells assessed as induction of BCR-ABL degradation pre-treated with 100 nM dasatinib for 2 hrs followed by compound addition at 100 nM and further incubated for 8 hrs by Western blot analysis; format: cell-based
# [15] = molecular target: von Hippel-Lindau disease tumor suppressor/Platelet-derived growth factor receptor beta (Homo sapiens) (UniProt P09619+P40337); test: Protac activity against VHL/PDGFRbeta in human K562 cells assessed as reduction in PDGFRbeta protein levels at 1 to 100 nM incubated for 16 hrs by Western blot analysis; format: cell-based
# [16] = molecular target: T1, von Hippel-Lindau disease tumor suppressor/Tyrosine-protein kinase ABL1/Breakpoint cluster region protein; test: Protac activity against VHL/BCR-ABL in human K562 cell lysates assessed as induction of pull down of endogenous ABL at 10 to 100 nM in presence of excess immobilized GST-VBC bait by GST-pull down assay; format: subcellular; conditions: Lysate
# [17] = molecular target: Bcr/Abl fusion protein (Homo sapiens) (UniProt P00519+P11274); test: Inhibition of BCR-ABL in human K562 cells assessed as reduction in STAT5 phosphorylation at 1 to 100 nM by Western blot analysis; format: cell-based
# [18] = molecular target: Tyrosine-protein kinase ABL1 (Homo sapiens) (UniProt P00519); test: Binding affinity to human non-phosphorylated ABL1 (S229 to K512 residues) expressed in mammalian expression system assessed as residual binding level at 10 uM by Kinomescan method relative to control
# [19] = Toxicity in NOD/SCID mouse xenografted with luciferse expressing human K562 cells assessed as effect on body weight at 5 to 15 mg/kg, ip QD for 12 days; format: organism-based; conditions: in vivo, 288 h
# [20] = molecular target: von Hippel-Lindau disease tumor suppressor/Mast/stem cell growth factor receptor Kit (Homo sapiens) (UniProt P10721+P40337); test: Protac activity against VHL/KIT in human K562 cells assessed as reduction in Kit protein levels at 1 to 100 nM incubated for 16 hrs by Western blot analysis; format: cell-based
# K562 [21] = test: Antitumor activity against luciferse expressing human K562 cells xenografted in NOD/SCID mouse assessed as attenuation of tumor progression at 5 to 15 mg/kg, ip QD for 12 days by serial volumetric analysis; format: functional, organism-based
# [22] = Permeability in human Caco2 cells at 10 uM incubated for 120 mins by LC-MS/MS analysis; format: ADME, cell-based; conditions: caco-2, 2 h
# [23] = molecular target: von Hippel-Lindau disease tumor suppressor/Tyrosine-protein kinase Yes (Homo sapiens) (UniProt P07947+P40337); test: Protac activity against VHL/YES in human K562 cells assessed as reduction in Yes protein levels at 1 to 100 nM incubated for 16 hrs by Western blot analysis; format: cell-based
# Chain of von Hippel-Lindau disease tumor suppressor/Tyrosine-protein kinase Yes (Homo sapiens) (P07947 whole entry, looked up): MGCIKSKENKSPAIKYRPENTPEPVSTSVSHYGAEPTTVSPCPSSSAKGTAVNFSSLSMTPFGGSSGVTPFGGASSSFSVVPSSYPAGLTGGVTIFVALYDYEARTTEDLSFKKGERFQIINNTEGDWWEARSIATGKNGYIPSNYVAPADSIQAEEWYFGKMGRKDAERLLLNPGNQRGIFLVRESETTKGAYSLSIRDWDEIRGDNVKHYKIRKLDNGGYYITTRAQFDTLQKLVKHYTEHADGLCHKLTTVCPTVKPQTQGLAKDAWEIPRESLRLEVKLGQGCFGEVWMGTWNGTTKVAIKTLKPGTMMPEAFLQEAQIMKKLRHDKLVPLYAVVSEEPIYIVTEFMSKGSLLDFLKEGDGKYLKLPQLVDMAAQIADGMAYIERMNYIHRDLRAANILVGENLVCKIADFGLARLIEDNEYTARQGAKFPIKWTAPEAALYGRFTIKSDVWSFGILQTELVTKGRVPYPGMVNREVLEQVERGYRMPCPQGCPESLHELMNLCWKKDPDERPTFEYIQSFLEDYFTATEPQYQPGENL
# Chain of von Hippel-Lindau disease tumor suppressor/Tyrosine-protein kinase Yes (Homo sapiens) (P40337 whole entry, looked up): as the sequence (P40337 whole entry, looked up) above
# [24] = molecular target: von Hippel-Lindau disease tumor suppressor/Proto-oncogene tyrosine-protein kinase Src (Homo sapiens) (UniProt P12931+P40337); test: Protac activity against VHL/Src in human K562 cells assessed as reduction in Src protein levels at 1 to 100 nM incubated for 16 hrs by Western blot analysis; format: cell-based
smiles,measurement,setting,value
Cc1nc(Nc2ncc(C(=O)Nc3c(C)cccc3Cl)s2)cc(N2CCN(C(=O)CCCCCCC(=O)N[C@H](C(=O)N3C[C@H](O)C[C@H]3C(=O)NCc3ccc(-c4scnc4C)cc3)C(C)(C)C)CC2)n1,growth inhibition (GI),HL-60,inactive
same,Activity,[1],Dose-dependent effect
same,Activity,K562 [2],Non-Toxic
same,Activity,[3],Dose-dependent effect
same,Activity,[4],Dose-dependent effect
same,growth inhibition (GI),K562 [5],Active
same,IC50,K562 [6],0.024 µM
same,Activity,[7],Active
same,inhibition,Mus musculus,Active
same,growth inhibition (GI),SUP-B15,Active
same,growth inhibition (GI),KU812 cell line,Active
same,Activity,K562 [8],Active
same,Activity,[9],Dose-dependent effect
same,Activity,[10],inactive
same,Activity,[11],Active
same,Activity,[12],Dose-dependent effect
same,Activity,[13],Dose-dependent effect
same,Activity,[14],inactive
same,Activity,[15],Dose-dependent effect
same,Activity,[16],Dose-dependent effect
same,inhibition,[17],Active
same,Activity,[18],Active
same,Activity,[19],Non-Toxic
same,Activity,[20],inactive
same,Activity,K562 [21],Dose-dependent effect
same,permeability,[22],Permeable
same,Activity,[23],inactive
same,Activity,[24],Dose-dependent effect

# — ChEMBL document CHEMBL4414590, “Discovery of SIAIS178 as an Effective BCR-ABL Degrader by Recruiting Von Hippel-Lindau (VHL) E3 Ubiquitin Ligase” (J Med Chem, 2019)
